Inhibition in vivo, Ki and IC50 data for 5 molecules are collected here from ChEMBL document CHEMBL3804784, “Sulfatase inhibitors for recidivist breast cancer treatment: A chemical review” (Eur J Med Chem, 2016).

For one assay, the system named is Rattus norvegicus. Put plainly: In vivo inhibition of aromatase in pregnant mare's serum gonadotrophin-stimulated ovarian aromatase rat model at 10 mg/kg, po relative to control. It is filed as functional.
Assay [1] deals with T1, Steryl-sulfatase (Homo sapiens, UniProt P08842).
T1 sequence (P08842 whole entry): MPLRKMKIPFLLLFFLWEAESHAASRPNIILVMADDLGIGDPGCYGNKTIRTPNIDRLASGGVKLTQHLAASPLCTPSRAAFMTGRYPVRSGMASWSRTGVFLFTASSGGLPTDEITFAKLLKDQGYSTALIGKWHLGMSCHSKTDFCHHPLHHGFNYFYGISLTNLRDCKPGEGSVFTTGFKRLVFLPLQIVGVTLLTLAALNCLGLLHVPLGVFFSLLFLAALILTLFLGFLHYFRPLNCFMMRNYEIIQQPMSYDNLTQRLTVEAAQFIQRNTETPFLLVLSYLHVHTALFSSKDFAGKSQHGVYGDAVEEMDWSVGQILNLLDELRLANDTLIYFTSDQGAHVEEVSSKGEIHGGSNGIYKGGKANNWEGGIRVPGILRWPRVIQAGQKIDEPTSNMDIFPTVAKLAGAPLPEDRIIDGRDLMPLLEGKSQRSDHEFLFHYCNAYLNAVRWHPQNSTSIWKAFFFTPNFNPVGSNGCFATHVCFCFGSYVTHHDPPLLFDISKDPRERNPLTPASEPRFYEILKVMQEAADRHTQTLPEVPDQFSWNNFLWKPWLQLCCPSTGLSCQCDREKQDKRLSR
Put plainly: Reversible inhibition of recombinant human estrone sulfatase using 4-methylumbelliferyl sulfate as substrate by Hanes plot analysis.

The target in assay [2] is T1, Steryl-sulfatase. Put plainly: Inhibition of recombinant human estrone sulfatase expressed in CHO cells using 4-methylumbelliferyl sulfate as substrate by Hanes plot analysis. It is filed as cell-based.
Assay [3] deals with T1, Steryl-sulfatase. Put plainly: Inhibition of estrone sulfatase in human MCF7 cells using [3H]-estrone sulphate as substrate incubated for 30 mins by liquid scintillation counting method. It is filed as cell-based.
In assay [4] the target is T1, Steryl-sulfatase. Briefly: Inhibition of human placental estrone sulfatase expressed in HEK293 cells using [3H]E1S as substrate incubated for 2 hrs by liquid scintillation counting method. It is filed as cell-based.
Assay [5] concerns the target T1, Steryl-sulfatase. Briefly: Inhibition of human placental microsomal estrone sulfatase using 4-methylumbelliferyl sulfate as substrate incubated for 1 hr by fluorescence assay.
The target in assay [6] is T1, Steryl-sulfatase. Briefly: Inhibition of estrone sulfatase in human JEG-3 cells using [3H]-estrone sulphate as substrate incubated for 4 hrs by liquid scintillation counting method. It is filed as cell-based.
Assay [7] deals with T1, Steryl-sulfatase. Briefly: Inhibition of placental microsomal estrone sulfatase (unknown origin) using [6,7-3H]E1S as substrate incubated for 1 hr by scintillation spectrometric analysis.

SMILES strings stand for the structures.

Consider `N#Cc1ccc(N(Cc2ccc(OS(N)(=O)=O)c(Br)c2)n2cnnc2)cc1`, for which testing at 10 mg/kg with Rattus norvegicus gave an inhibition in vivo of 82%.

With `O=C(O)c1ccc2sc(C34CC5CC(CC(C5)C3)C4)cc(=O)c2c1`, the Ki on Steryl-sulfatase [1] was found to be 500 nM.

Turning to `O=C(NN1[C@@H]2CC[C@H]1CC(C(=O)OCc1ccccc1)C2)NS(=O)(=O)c1ccc(Cl)cc1` (stereo partly drawn), the inhibition constant (Ki) on Steryl-sulfatase [2] was determined as 890 nM.

`CCN(CC)CCOCC[C@H]1CC[C@H]2[C@@H]3[C@H](C)Cc4cc(OS(N)(=O)=O)ccc4[C@H]3CC[C@]12C`: the IC50 against Steryl-sulfatase [3] amounted to 100 nM.

Turning to `C[C@]12CC[C@@H]3c4ccc(OS(N)(=O)=O)cc4CC[C@H]3[C@@H]1CCC2=O` [EMATE], the IC50 on Steryl-sulfatase [4] was 0.9 nM; on Steryl-sulfatase [5] it was 60 nM; at Steryl-sulfatase [6] it was 3.2 nM; on Steryl-sulfatase [7] it was 9.1 nM.
